Earlier results, collected in patent publication US8883207B2, “Controlled release carvedilol formulation” (TSH Biopharm Corporation Ltd., priority 2009, dated 2014).
Where two headings read alike, the source gives them in different places.

Legend:
[1] = not given; remark: listed apart in the source

solubility in gastric fluid (gastric fluid (simulated, TS, pH 1.1)): low solubility | solubility in intestinal fluid (intestinal fluid (simulated, TS without pancreatin, pH 7.5)): low solubility | solubility in water (water): low solubility | relative absorption ([1]; colon): 7% | relative absorption ([1]; ileum): 28% | relative absorption ([1]; jejunum): 56%
Structure (SMILES): COc1ccccc1OCCNCC(O)COc1cccc2[nH]c3ccccc3c12 (racemic) [carvedilol, ((±)1-(carbazol-4-yloxy-3-[[2-(o-methoxyphenoxy)ethyl]-amino]-2-propanol)]
